According to US20150031045A1, “MARKERS FOR DIAGNOSING AMYOTROPHIC LATERAL SCLEROSIS” (University Of Maryland, priority 2012, published 2015):
Entries after “also recorded” stand apart in the source; their conditions may differ.

How the values were obtained:
[1] = Body weight of G93A*SOD1 ALS mice treated with 6-gingerol; format: in vivo
Description: (§1) The study used 12 mice. At 35 d, mice were assigned to treatment groups. The 3 groups in the study were: i) wild-type control mice treated with vehicle (CON-Veh; n=4; 3 female (F) and 1 male (M)); ii) G93A*SOD1 ALS mice treated with vehicle (ALS-Veh; n=4; 3 F and 1 M; and iii) G93A*SOD1 mice treated with 6-Gingerol (ALS-Gin; n=4; 3 F and 1 M). There were no 6-gingerol treated control mice due to cost of the drug.
(§2) 6-gingerol was purchased from Carbosynth Limited, UK. Mice were dosed daily with intraperitoneal (ip) injection of vehicle (0.4% ethanol in PBS) or 6-gingerol at a dose of 10 mg/kg. Treatment began when mice were 35 d old and terminated at 115 d. The volume dosed was adjusted weekly according to changes in body weight.
In this study, mice were evaluated at an average age of 115±5 d (for CON-Veh, ALS-Veh and ALS-Gin), just prior to severe symptom onset. […] There was also a significant reduction in muscle mass in ALS vs. CON mice and a 21% improvement in muscle mass with 6-gingerol (CON-Veh: 0.111±0.015 g; ALS-Veh: 0.075±0.010 g; ALS-Gin 0.090±0.007 g) (FIG. 22, left panel, and Table 4).

G93A*SOD1 ALS mice [2] = assay: Gastrocnemius muscle mass and muscle mass index; format: in vivo
Description: as §1, §2
Specifically, muscle function was assessed using a grip test and a walking or stride test at the termination of the study. After conclusion of the grip function and stride function tests, the mice were then sacrificed and skeletal muscle tissues weighed to determine muscle mass.

G93A*SOD1 ALS mice [3] = assay: Grip function test; format: in vivo; settings: 10 mg/kg ip daily
Description: as §1, §2
Briefly, mice are placed on a metal grid (20 cm wide, 40 cm long; grid placed 40 cm above table) and allowed to grip with fore- and hind-limb paws prior to inverting the grid. Timing begins once the grid is inverted and stops once the mouse can no longer hold the lid.

G93A*SOD1 ALS mice [4] = assay: Stride length test; format: in vivo; settings: 10 mg/kg ip daily; p=0.13
Description: as §1, §2
Briefly, fore- and hind-limb paws are dipped in non-toxic paint and mice walk across a 120 cm table covered in white paper. A dark box with food is placed at the far end to encourage walking across the table. The distance between the fore- and hind-limb ink marks are then measured. Four strides per mouse are quantified and the average stride length determined

[5] = test system: single muscle fibres from the flexor digitorum brevis (FDB) muscle; assay: Intracellular Ca2+ handling (Fura-2) in single muscle fibres from treated mice; format: in vivo
Description: For e-c coupling measurements, fibres were loaded with 1 μM Fura-2 AM in MEM/FBS media for 15 min at room temperature. Fura-2 AM media was then removed by quick centrifugation and fibres were resuspended in fresh MEM/FBS media. Fibres loaded with Fura-2 were placed in a culture/stimulation chamber (Cell MicroControls) containing parallel electrodes on top of a Nikon TiU microscope. Once in the chamber, fibres were continuously perfused with stimulating tyrode (121 mM NaCl, 5 mM KCl, 1.8 mM CaCl2, 0.5 mM MgCl2, 0.4 mM NaH2PO4, 24 mM NaHCO3, and 5.5 mM glucose) pH 7.3 when continuously bubbled with 95% O2/5% CO2 using a Gilson Minipuls 3 peristaltic pump and vacuum pump. Intracellular Ca^2+ levels were assessed by Fura-2 fluorescence ratio (ratio of excitation at 340 and 380 nm; emission at 510 nm) using the IonOptix Hyperswitch system, with the Hyperswitch enabling collection of ratiometric data at a frequency of 250 Hz. Ratios were converted to intracellular free Ca^2+ concentration ([Ca^2+]i). The Fura-2 ratio was calibrated in vivo using the Ca^2+ ionophore A23187 and 10 mM EGTA or 1 mM CaCl2, with Rmin and Rmax determined to be 0.33 and 3.50, respectively. The Kd for Ca^2+ for Fura-2 was 224 nM.
Fura-2 loaded single fibres were stimulated using 350 ms tetani, 0.5 ms pulse duration at 10, 30, 50, 70 and 100, 120 and 150 Hz stimulation frequencies (S48 Square Pulse Stimulator, GRASS Technologies) with one minute rest between frequencies. All single fibre data was collected at room temperature (23 degrees Celsius). […]
After conclusion of the grip function and stride function tests, mice were then sacrificed and single muscle fibres were obtained immediately from the flexor digitorum brevis (FDB) muscle and intracellular Ca^2+ handling assessed using Fura-2 as discussed above in Example 1. Changes in Fura-2 ratio, representing changes in [Ca^2+]i, were measured under resting conditions and in response to electrical stimulation at a range of physiological frequencies (10-150 Hz). […]

SERCA1 = SERCA1 protein level in gastrocnemius muscle by western blot; format: in vivo, mice; settings: 10 mg/kg ip daily; levels nearing those in CON muscle; p<0.05 vs. ALS-Veh
Description: (§3) The superficial (SP) and deep (DP) portions of the gastrocnemius muscle (SP GAS and DP GAS, respectively) were used for analysis of Ca^2+ regulatory protein levels by western blot. Anatomically, the gastrocnemius muscle is composed of a lateral and medial head, with a similar mixture of fibres types in the two heads: lateral gastrocnemius is 69% fast glycolytic (FG), 30% fast oxidative and glycolytic (FOG) and 1% slow oxidative (SO) fibres and medial gastrocnemius is 55% FG, 32% FOG and 8% SO. The muscle was divided by superficial vs. deep portions due to their glycolytic (white) vs. oxidative (red) differences, respectively. […] Protein levels were determined using a BCA protein kit (Thermo Scientific). […] For assessment of changes in sarcoplasmic reticulum (SR)/endoplasmic reticulum (ER) Ca^2+ (SERCA) pump, SERCA1 and SERCA2 protein levels were measured. Specifically, 15 μg protein was loaded on 8% gels and analyzed by polyacrylamide gel electrophoresis (PAGE). Levels of parvalbumin (PV) were assessed by loading 2.5 μg protein on 15% gels. […] Level of each respective protein was quantified by chemiluminescence using SuperSignal West Dura Chemiluminescent Substrate (Thermo Scientific) and imaged using a chemiluminescence imaging system (GeneGnome, Syngene). Protein expression levels are expressed as Arbitrary Units (AU). […]

SERCA2 = SERCA2 protein level in skeletal muscle by western blot; format: in vivo, mice; settings: 10 mg/kg ip daily
Description: as §3

CHOP = CHOP protein level in gastrocnemius muscle by western blot; format: in vivo, mice; settings: 10 mg/kg ip daily; p<0.05 vs. ALS-Veh
Description: Total protein was determined using a BCA protein assay kit (Thermo Scientific). Samples were then solubilized in loading buffer and denatured (5 min at 100° C.). For assessment of changes in protein expression levels, 15-30 μg total protein were loaded on bis-acrylamide gels and analyzed by polyacrylamide gel electrophoresis (PAGE). The amount of protein loaded for each endpoint was determined by separate analysis of the linear range for each antibody. Samples were then transferred to PVDF membrane (Millipore) and blocked with 5% (w/v) non-fat dry milk powder in Tris-buffered saline (pH 8.0) for 1 hr. […] Secondary antibodies were detected using HRP-linked chemiluminescence with SuperSignal West Dura Chemiluminescence Substrate (Thermo Scientific) and imaged using a chemiluminescence imaging system (GeneGnome, Syngene). The signal for the target protein of each sample was quantified and expressed in arbitrary unit (AU) and then values for each ALS and CON mouse expressed as a ratio relative to the first CON mouse (CON1) at each age. […]
The response of skeletal muscle to the ER stress markers was also assessed in response to gingerol treatment, namely by examining the levels of the apoptotic factor CHOP.

PERK = PERK protein level in gastrocnemius muscle by western blot; format: in vivo, mice; settings: n=5
Description: (§4) As described above in Examples 15-18, ALS mice administered 6-gingerol had improved muscle function, improved intracellular calcium clearance, increased SERCA1 protein levels, and decreased CHOP protein levels. To further examine the response of skeletal muscle to 6-gingerol treatment, the levels of ER stress proteins PERK, GRP78/BiP, PDI, and IRE1α were measured in the gastrocnemius muscle of control (CON) and G93A*SOD1 (ALS) mice treated with vehicle (Veh) or 6-gingerol (Gin). Specifically, the protein levels were measured by western blotting. Each group had five mice, i.e., CON (n=5), ALS-Veh (n=5), and ALS-Gin (n=5).

GRP78/BiP = GRP78/BiP protein level in gastrocnemius muscle by western blot; format: in vivo, mice; settings: n=5
Description: as §4

PDI = PDI protein level in gastrocnemius muscle by western blot; format: in vivo, mice; settings: n=5
Description: as §4

IRE1α = IRE1α protein level in gastrocnemius muscle by western blot; format: in vivo, mice; settings: n=5
Description: as §4

SR Ca^2+ ATPase (SERCA) = assay: Maximum Ca2+ ATPase activity in skeletal muscle homogenates; format: in vivo, mice; settings: 10 mg/kg 6-gingerol for 10 weeks, p<0.05 vs. ALS-Veh
Description: To further examine the effects of 6-gingerol treatment, maximum Ca^2+ ATPase activity was measured in control (CON) and G93A*SOD1 (ALS) mice treated with vehicle (Veh) or 6-gingerol (Gingerol). Specifically, ALS mice received 10 mg/kg 6-gingerol for 10 weeks. The vehicle was administered in parallel to the CON-Veh and ALS-Veh groups of mice.
SR Ca^2+ ATPase (SERCA) activity in skeletal muscle homogenates obtained from the mice was then measured and the average data for all groups is shown in FIG. 31, in which CON (n=5), ALS-Veh (n=5), and ALS-Gin (n=5). In FIG. 31, *=p<0.05 vs. CON-Veh and #=p<0.05 vs. ALS-Veh.

In the case of `CCCCC[C@H](O)CC(=O)CCc1ccc(O)c(OC)c1` [6-gingerol], the “Effect of 6-gingerol on body weight” value ([1]; ALS-Gin vs. ALS-Veh, 10 mg/kg ip daily, 10 mg/kg) is reported as “no significant improvement”, the Body weight ([1]; ALS-Gin: G93A*SOD1 mice, 10 mg/kg ip daily from 35 d, evaluated at 115±5 d, CON-Veh 21.0±2.7, ALS-Veh 17.8±1.4) is reported as 18.2 ± 0.7 g and the “Muscle mass index (mg muscle per g body weight), reduction in ALS” value (G93A*SOD1 ALS mice [2]; ALS-Gin vs. ALS-Veh) is reported as “attenuated”. For the same molecule, the “Improvement in muscle mass with 6-gingerol” value (G93A*SOD1 ALS mice [2]; ALS-Gin vs. ALS-Veh, 10 mg/kg ip daily) was 21%, the Gastrocnemius muscle mass (G93A*SOD1 ALS mice [2]; ALS-Gin, 10 mg/kg ip daily 35-115 d, CON-Veh 0.111±0.015, ALS-Veh 0.075±0.010) was 0.090 ± 0.007 g and the “Grip test time, difference ALS-Gin vs. ALS-Veh” value (G93A*SOD1 ALS mice [3]; p<0.10) was “did not reach significance”. The “Grip function, % of CON-Veh level” value (G93A*SOD1 ALS mice [3]; ALS-Gin, ALS-Veh 17% of CON-Veh, p=0.08) was 42%, the “Stride length, difference ALS-Gin vs. ALS-Veh” value (G93A*SOD1 ALS mice [4]) was “tendency to improve; also recorded: did not reach statistical significance” and the “Effect of 6-gingerol on peak Fura-2 ratio (10 Hz)” value ([5]; ALS-Gin vs. ALS-Veh) was “no attenuation; also recorded: no improvement”. The “Ca^2+ decay time, ALS-Gin vs. ALS-Veh” value ([5]; single FDB fibres, after 50 and 100 Hz tetani, p<0.11) was “tendency for improvement; also recorded: trend for single fibres from ALS-Gin to have a faster decay time”, the “Resting Fura-2 ratio, ALS-Gin vs. ALS-Veh” value ([5]; single FDB fibres, p=0.13) was “lower but did not reach statistical significance; also recorded: tendency for Fura-2 ratio to be lower” and the “SERCA1 protein level in gastrocnemius muscle, ALS-Gin compared to ALS-Veh” value (SERCA1) was “dramatic increase”. For the same molecule, the “SERCA2 protein level, rescue of the decrease with 6-gingerol treatment” value (SERCA2) was “minimal rescue”, the “CHOP protein level in skeletal muscle, ALS-Gin vs. ALS-Veh” value (CHOP) was “significantly attenuated” and the “PERK protein level, ALS-Gin compared to ALS-Veh” value (PERK) was “decreased”. The “GRP78/BiP protein level, ALS-Gin compared to ALS-Veh” value (GRP78/BiP) was “decreased”, the “PDI protein level, ALS-Gin compared to ALS-Veh” value (PDI) was “decreased” and the “IRE1α protein level, ALS-Gin compared to ALS-Veh” value (IRE1α) was “decreased”. The “Ca^2+ ATPase maximum activity (SERCA activity), ALS-Gin relative to ALS-Veh” value (SR Ca^2+ ATPase (SERCA)) was “increased; also recorded: restored Ca^2+ ATPase maximum activity”.
